Data as given in US20120245044A1, “METHODS OF DETERMINING CHEMOTHERAPY RESPONSE IN CANCER” (TRANSLATIONAL GENOMICS RESEARCH INSTITUTE, priority 2011, published 2012).

Assays:
Format in all cases: cell-based
[1] = test system: H69-GLI1 versus H69-wt SCLC cells; assay: Drug dose response, cell viability after 72 hours, GLI1 over-expressing vs parental line
Description: (§1) (A) Drug-dose response experiment in H69-GLI1 and H69-GLI2 versus H69-wt for cisplatin. […] (C) Drug-dose response experiment in H69-GLI1 versus H69-wt for cisplatin. Methods. Two SCLC cell lines, H69 and H526, were transduced with a GLI1 over-expressing (o/e) vector (Kasper et al, 2007) to create two lines expressing the gene: H69-GLI1 and H526-GLI1. GLI1 expression was verified by qRT-PCR. Cellular proliferation was measured over a 96-hour period. To study the drug dose response, GLI1 o/e and parental lines were treated with single-agent or combination dosing of cisplatin and etoposide, and cell viability was assessed after 72 hours. Relative GLI1 expression was compared with cisplatin response in four additional SCLC cell lines (H146, […], […]). Gene expression analysis was performed on H69-GLI1 and H69 parental cells, with two replicates for each, using Agilent (Agilent Technologies, Santa Clara, Calif.) 44K expression arrays. Data was normalized and analyzed using Genespring software (Agilent Technologies, Santa Clara, Calif.).

[2] = test system: H69-GLI2 versus H69-wt SCLC cells; assay: Drug dose response, cell viability after 72 hours; conditions: single agent, experiment H69-GLI1 and H69-GLI2 versus H69-wt (FIG. 1A/1B)
Description: as §1

[3] = test system: H526-GLI1 versus H526-wt SCLC cells; assay: Drug dose response, cell viability after 72 hours, GLI1 over-expressing vs parental line; conditions: H526-GLI1 compared to H526-wt
Description: Methods. Two SCLC cell lines, H69 and H526, were transduced with a GLI1 over-expressing (o/e) vector (Kasper et al, 2007) to create two lines expressing the gene: H69-GLI1 and H526-GLI1. GLI1 expression was verified by qRT-PCR. Cellular proliferation was measured over a 96-hour period. To study the drug dose response, GLI1 o/e and parental lines were treated with single-agent or combination dosing of cisplatin and etoposide, and cell viability was assessed after 72 hours. Relative GLI1 expression was compared with cisplatin response in four additional SCLC cell lines (H146, […], […]). Gene expression analysis was performed on H69-GLI1 and H69 parental cells, with two replicates for each, using Agilent (Agilent Technologies, Santa Clara, Calif.) 44K expression arrays. Data was normalized and analyzed using Genespring software (Agilent Technologies, Santa Clara, Calif.).

[4] = single agent, experiment H69-GLI1 and H69-GLI2 versus H69-wt (FIG. 1A/1B), viability after 72 hours

Row | SMILES | shift in cisplatin resistance ([1]; H69-GLI1 compared to H69-wt, drug dose response, FIG. 1) [fold] | fold change between H69-GLI1 and H69-wt in drug-dose response ([1]; experiment H69-GLI1 versus H69-wt only (FIG. 1C)) [fold] | fold change between H69-GLI1 and H69-wt in drug-dose response [1, 4] [fold] | fold change between H69-GLI2 and H69-wt in drug-dose response [2] [fold] | change in cisplatin resistance [3]
1 | N.N.[Cl][Pt][Cl] [cisplatin, cis-diamminedichloroplatinum(II)] | ≥ 1.5 | 2.77 | 1.76 | 1.21 | no significant change
2 | COc1cc([C@@H]2c3cc4c(cc3[C@@H](O[C@@H]3O[C@@H]5CO[C@@H](C)O[C@H]5[C@H](O)[C@H]3O)[C@H]3COC(=O)[C@H]23)OCO4)cc(OC)c1O [etoposide] |  |  | 4.55 | 1.76 | 
